Measured values taken from PubChem BioAssay (NCI).
Where “and” joins values, the source holds several entries; their conditions need not be identical. Equal entries are not always repeated.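 All cell lines were grown in 96-well plates and treated with compound for 48 hours. Abbreviation: GI50, concentration required for 50% inhibition of growth. TGI denotes the concentration required for complete inhibition of growth.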

What was measured:
Experiment in all cases: NCI anticancer screen, dose series, 48 h
DLD-1 colon = tested on: DLD-1 colon
DU-145 prostate = tested on: DU-145 prostate
HOP-92 NSCLC = tested on: HOP-92 NSCLC
HT29 colon = tested on: HT29 colon
LOX IMVI melanoma = tested on: LOX IMVI melanoma
LXFL 529 NSCLC = tested on: LXFL 529 NSCLC
MDA-MB-231 breast = tested on: MDA-MB-231 breast
OVCAR-8 ovarian = tested on: OVCAR-8 ovarian
SK-MEL-5 melanoma = tested on: SK-MEL-5 melanoma
U251 CNS = tested on: U251 CNS

COc1ccc(/C=C2\CCC(CN(C)C)C2=O)cc1OC (centres undefined)
TGI (DLD-1 colon): 8.83 µM
TGI (DU-145 prostate): 20.4 µM
TGI (HOP-92 NSCLC): 21 µM
TGI (HT29 colon): 23.5 µM
TGI (LOX IMVI melanoma): 3.96 µM
TGI (LXFL 529 NSCLC): 6.7 µM
TGI (MDA-MB-231 breast): 7.71 µM
TGI (OVCAR-8 ovarian): 8.25 µM
TGI (SK-MEL-5 melanoma): 23.9 µM
TGI (U251 CNS): 30.8 µM

CN(C)c1ccc(C(=C2C=CC(=[N+](C)C)C=C2)c2ccc(N(C)C)cc2)cc1
TGI (DLD-1 colon): 1.74 µM
GI50 (DU-145 prostate): 0.0783 µM
TGI (DU-145 prostate): 1.23 µM
GI50 (HOP-92 NSCLC): 0.145 µM
TGI (HOP-92 NSCLC): 0.461 µM
GI50 (HT29 colon): 0.0363 µM
TGI (HT29 colon): 0.158 µM
TGI (LXFL 529 NSCLC): 1.03 µM
GI50 (MDA-MB-231 breast): 0.246 µM
TGI (MDA-MB-231 breast): 1.26 µM
GI50 (SK-MEL-5 melanoma): 0.162 µM
TGI (SK-MEL-5 melanoma): 0.324 µM and 0.214 µM
GI50 (U251 CNS): 0.0462 µM
TGI (U251 CNS): 0.565 µM and 1.14 µM

CCN(CC)CC(C(=O)Nc1c(C)cccc1C)/C(C)=N\NC(=O)c1ccncc1 (centres undefined)
TGI (DLD-1 colon): > 100 µM
TGI (HOP-92 NSCLC): > 100 µM
TGI (HT29 colon): > 100 µM
TGI (LOX IMVI melanoma): > 100 µM
TGI (LXFL 529 NSCLC): > 100 µM
TGI (OVCAR-8 ovarian): > 100 µM
TGI (SK-MEL-5 melanoma): > 100 µM
TGI (U251 CNS): > 100 µM

C/C=C/C=C/CCCCCCCCCCCCCC1(OC)C=CC(CC(=O)OC)OO1 (centres undefined)
GI50 (DLD-1 colon): 5.79 µM
TGI (DLD-1 colon): 23.8 µM
TGI (HOP-92 NSCLC): 4.12 µM
GI50 (HT29 colon): 1.82 µM
TGI (HT29 colon): 3.43 µM
GI50 (LOX IMVI melanoma): 2.02 µM
TGI (LOX IMVI melanoma): 3.9 µM
GI50 (LXFL 529 NSCLC): 4.7 µM
TGI (LXFL 529 NSCLC): 16.7 µM
GI50 (OVCAR-8 ovarian): 3.99 µM
TGI (OVCAR-8 ovarian): 14.5 µM
TGI (SK-MEL-5 melanoma): 22.6 µM
TGI (U251 CNS): 31.2 µM

O=C1CCC2(c3ccccc3)Nc3ncccc3N12 (centres undefined)
TGI (DLD-1 colon): > 100 µM
TGI (HOP-92 NSCLC): > 100 µM
TGI (HT29 colon): > 100 µM
TGI (LOX IMVI melanoma): > 100 µM
TGI (LXFL 529 NSCLC): > 100 µM
TGI (OVCAR-8 ovarian): > 100 µM
TGI (SK-MEL-5 melanoma): > 100 µM
TGI (U251 CNS): > 100 µM

COC(=O)c1cc(-c2cccn2C)c2c(c1C(=O)OC)c1ccccc1n2C
TGI (DLD-1 colon): > 100 µM
TGI (HOP-92 NSCLC): > 100 µM
TGI (HT29 colon): > 100 µM
TGI (LOX IMVI melanoma): > 100 µM
TGI (LXFL 529 NSCLC): > 100 µM
TGI (OVCAR-8 ovarian): > 100 µM
TGI (SK-MEL-5 melanoma): > 100 µM
TGI (U251 CNS): > 100 µM

CCOC(=O)C1=C(Nc2cccc3ccccc23)OC/C1=N\NC(=O)c1ccccc1O
TGI (DLD-1 colon): 81.5 µM
TGI (HOP-92 NSCLC): 46.1 µM
TGI (HT29 colon): > 88.5 µM
TGI (LOX IMVI melanoma): > 72.5 µM
TGI (LXFL 529 NSCLC): > 100 µM
TGI (OVCAR-8 ovarian): 67.8 µM
TGI (SK-MEL-5 melanoma): 37.4 µM
TGI (U251 CNS): > 100 µM

O=C(Nc1nc(=S)c2c(ncn2CCO)[nH]1)c1ccccc1
TGI (DLD-1 colon): > 100 µM
TGI (HOP-92 NSCLC): > 100 µM
TGI (HT29 colon): > 100 µM
TGI (LOX IMVI melanoma): > 100 µM
TGI (LXFL 529 NSCLC): > 100 µM
TGI (OVCAR-8 ovarian): > 100 µM
TGI (SK-MEL-5 melanoma): > 100 µM
TGI (U251 CNS): > 100 µM

COC(=O)C1=C(C(=O)OC)SC(=C(N=Nc2ccccc2)c2ccccc2)S1
TGI (DLD-1 colon): > 100 µM
TGI (HOP-92 NSCLC): > 100 µM
TGI (HT29 colon): > 100 µM
TGI (LOX IMVI melanoma): > 100 µM
TGI (LXFL 529 NSCLC): > 100 µM
TGI (OVCAR-8 ovarian): > 100 µM
TGI (SK-MEL-5 melanoma): > 100 µM
TGI (U251 CNS): > 100 µM

COC(=O)C1=C(O)c2cc3c(cc2[C@H](c2cc(OC)c(OC)c(OC)c2)C1C(=O)OC)OCO3 (some centres undefined)
TGI (DLD-1 colon): > 100 µM
TGI (HOP-92 NSCLC): > 100 µM
TGI (HT29 colon): > 100 µM
TGI (LOX IMVI melanoma): > 100 µM
TGI (LXFL 529 NSCLC): > 100 µM
TGI (OVCAR-8 ovarian): > 100 µM
TGI (SK-MEL-5 melanoma): > 100 µM
TGI (U251 CNS): > 100 µM

CS/C(C)=N/OC(=O)NCCCCNc1ccc(N=[N+]=[N-])cc1
TGI (DLD-1 colon): > 100 µM
TGI (HOP-92 NSCLC): > 100 µM
TGI (HT29 colon): > 100 µM
TGI (LOX IMVI melanoma): > 100 µM
TGI (LXFL 529 NSCLC): > 100 µM
TGI (OVCAR-8 ovarian): > 100 µM
TGI (SK-MEL-5 melanoma): 38.6 µM
TGI (U251 CNS): > 100 µM

C[C@@H](NC1CCC[C@H]1O)c1ccccc1 (some centres undefined)
TGI (DLD-1 colon): > 100 µM
TGI (HOP-92 NSCLC): > 100 µM
TGI (HT29 colon): > 100 µM
TGI (LOX IMVI melanoma): > 100 µM
TGI (LXFL 529 NSCLC): > 100 µM
TGI (OVCAR-8 ovarian): > 100 µM
TGI (SK-MEL-5 melanoma): > 100 µM
TGI (U251 CNS): > 100 µM
